Results from patent publication US6610744B2, “Methods of treatment with compounds having RARα receptor specific or selective activity” (Allergan, Inc., priority 1995, dated 2003).
Converted amounts (≈) assume the structure as drawn.

Assays:
[1] = test system: RPMI 8226 cells (malignant myeloma); assay: RPMI 8226 cell culture assay (3H-thymidine incorporation); type: cell-based, human; details: FIG. 1; for growth of RPMI 8226 malignant cells: 96 hours; for growth of RPMI 8226 cells at low concentration: low concentration range 10^−12 to approximately 10^−9
Method: (§1) All trans-retinoic acid (t-RA) (Sigma Chemicals Co., St. Louis, Mo.) was stored at −70° C. Prior to each experiment the compound was dissolved in 100% ethanol at 1 mM and diluted in culture medium immediately before use. All experiments were performed in subdued light. Controls were assayed using the same concentration of ethanol as present in the experimental plates and this concentration of diluent had no effect in either assay.
The cell lines, RPMI 8226, ME-180 and AML-193 were obtained from the American Type Culture Collection (ATCC, Rockville, Md.). RPMI 8226 is a human hematopoietic cell line obtained from the peripheral blood of a patient with multiple myeloma. The cells resemble the lymphoblastoid cells of other human lymphocyte cell lines and secrete […] light chains of immunoglobulin. RPMI-8226 cells are grown in RPMI medium (Gibco) supplemented with 10% fetal bovine serum, glutamine and antibiotics. The cells were maintained as suspension cultures grown at 37° C. in a humidified atmosphere of 5% CO2 in air. The cells were diluted to a concentration of 1×10^5/ml twice a week.
(§2) The method used for determination of the incorporation of radiolabeled thymidine was adapted from the procedure described by Shrivastav et al. RPMI-8226 cells were plated in a 96 well round bottom microtiter plate (Costar) at a density of 1,000 cells/well. To appropriate wells, retinoid test compounds were added at the final concentrations indicated for a final volume of 150 μl/well. The plates were incubated for 96 hours at 37° C. in a humidified atmosphere of 5% CO2 in air. Subsequently, 1 μCi of [5′-^3H]-thymidine (Amersham, U.K. 43 Ci/mmol specific activity) in 25 μl culture medium was added to each well and the cells were incubated for an additional 6 hours. The cultures were further processed as described below.
(§3) The cell lines were then processed as follows: the cellular DNA was precipitated with 10% trichloroacetic acid onto glass fiber filter mats using a SKATRON multi-well cell harvester (Skatron Instruments, Sterling Va.). Radioactivity incorporated into DNA, as a direct measurement of cell growth, was measured by liquid scintillation counting. The numbers represent the mean disintegrations per minute of incorporated thymidine from triplicate wells±SEM.

[2] = test system: AML-193 cells (acute monocytic leukemia); assay: AML 193 cell culture assay (3H-thymidine incorporation); type: cell-based, human; details: FIG. 3; low concentrations
Method: as §1
AML-193 was established from the blast cells classified as M5 Acute Monocyte Leukemia. The growth factor, […] (GM-CSF) was required to establish this cell line and growth factors are necessary for its continuous proliferation in chemically defined medium. AML-193 cells were grown and maintained in Iscove's modified Dulbecco's medium supplemented with 10% fetal bovine serum, glutamine and antibiotics with 5 μg/ml insulin (Sigma Chemical Co.) and 2 ng/ml rh GM-CSF (R and D Systems). The cells were diluted to a concentration of 3×10^5/ml twice a week.
as §2, with “AML-193” for “The method used for determination of the incorporation of radiolabeled thymidine was adapted from the procedure described by Shrivastav et al. RPMI-8226”, “U.K.,” for “U.K.”, “hours.” for “hours. The cultures were further processed as described below.”
as §3

[3] = test system: limb bud mesenchymal cells; assay: Chondrogenesis suppression bioassay (teratogenic potency); type: cell-based; details: read-out: IC50 (50% inhibition of chondrogenesis); mouse limb bud spot cultures, 96 hours after plating; greater IC50 signifies lesser teratogenecity
Method: High-density “spot” cultures of limb bud mesenchymal cells are used to compare the ability of various concentrations of test drugs to suppress chondrogenic differentiation as a bioassay. Forelimb buds of mouse embryos on day 12 of gestation (54±2 somites) are dissociated in a trypsin-EDTA solution, and the resultant single-cell suspension is plated as 20-μl spots (200,000 cells/spot) on plastic culture dishes. Retinoid concentrations ranging from 0.3 ng/ml to 3 μg/ml (1 nM−10 μM) are added to the culture medium (Eagle's MEM±10% fetal bovine serum, GIBCO) 24 hours after initial plating. Control cultures receive only the vehicle (ethanol, concentration≦1% by vol); Retinoic acid is used as a positive control in another set of cultures.
The cultures are terminated 96 hours after plating, at which time the medium is removed and the cells are fixed for 1 hour in 10% formalin containing 0.5% cetylpyridinium chloride. The cultures are rinsed in acetic acid and stained for 1 hour in 0.5% Alcian blue solution at pH 1.0, differentiated in 3% acetic acid, and then dehydrated in ethanol and scored for chondrogenesis under the microscope. An absence or reduction in the number of cartilage nodules in stained cultures as compared with control cultures is taken as a measure of suppression of chondrogenesis. The number of cartilage nodules stained in the whole spot, mean number of nodules, and standard deviations are calculated for four replicate cultures per treatment. […] The IC50 values are expressed in nanogram per mililiter (ng/ml) units. An IC50 value of greater concentration in this assay signifies lesser teratogenecity.

[4] = test system: hairless mice [Crl:SKH1-hrBR]; assay: Eight day topical skin irritation assay in hairless mice; details: for Abrasion Score / Body Weight % gain or (loss) / Composite Score / Flaking Score / Mortality (out of 4): 5 days
Method: More particularly, skin irritation was measured on a semi-quantitative scale by the daily subjective evaluation of skin flaking and abrasions. A single number, the topical irritation score, summarizes the skin irritation induced in an animal during the course of an experiment. The topical irritation score is calculated as follows. The topical irritation score is the algebraic sum of a composite flaking score and a composite abrasion score. The composite scores range from 0-9 and 0-8 for flaking and abrasions, respectively, and take into account the maximum severity, the time of onset, and the average severity of the flaking and abrasions observed.
The severity of flaking is scored on a 5-point scale and the severity of abrasions is scored on a 4-point scale, with higher scores reflecting greater severity. The maximum severity component of the composite scores would be the highest daily severity score assigned to a given animal during the course of observation.
For the time of onset component of the composite score, a score ranging from 0 to 4 is assigned as follows:
The average severity component of the composite score is the sum of the daily flaking or abrasion scores divided by the number of observation days.
To calculate the composite flaking and abrasion scores, the average severity and time of onset scores are summed and divided by 2. The result is added to the maximal severity score. The composite flaking and abrasion scores are then summed to give the overall topical irritation score. Each animal receives a topical irritation score, and the values are expressed as the mean±SD of the individual scores of a group of animals. Values are rounded to the nearest integer.
Thus, female hairless mice [Crl:SKH1-hrBR] […] Treatments are applied to the dorsal skin in a total volume of 4 ml/kg (−0.1 ml).

[5] = Weight loss in rats treated for 3 days; type: in vivo, rat; details: rats
Method: Weight loss or gain that experimental animals experience upon administration of retinoid compounds is another test of the drug's toxicity, with significant weight loss at relatively low doses indicating a significant toxic side effect of the retinoid. In one experiment, groups of 5 rats were treated with varying doses (administered in corn oil) of a test retinoid for 3 days. The rats were euthanized 24 hours after the last dose.

[6] = target: T1, RXRβ (Homo sapiens, UniProt P28702); assay: Ligand binding assay, RXRβ
T1 construct: made in house; host or cells: Baculovirus expression (insect cell extract)
T1 sequence (P28702 1-533): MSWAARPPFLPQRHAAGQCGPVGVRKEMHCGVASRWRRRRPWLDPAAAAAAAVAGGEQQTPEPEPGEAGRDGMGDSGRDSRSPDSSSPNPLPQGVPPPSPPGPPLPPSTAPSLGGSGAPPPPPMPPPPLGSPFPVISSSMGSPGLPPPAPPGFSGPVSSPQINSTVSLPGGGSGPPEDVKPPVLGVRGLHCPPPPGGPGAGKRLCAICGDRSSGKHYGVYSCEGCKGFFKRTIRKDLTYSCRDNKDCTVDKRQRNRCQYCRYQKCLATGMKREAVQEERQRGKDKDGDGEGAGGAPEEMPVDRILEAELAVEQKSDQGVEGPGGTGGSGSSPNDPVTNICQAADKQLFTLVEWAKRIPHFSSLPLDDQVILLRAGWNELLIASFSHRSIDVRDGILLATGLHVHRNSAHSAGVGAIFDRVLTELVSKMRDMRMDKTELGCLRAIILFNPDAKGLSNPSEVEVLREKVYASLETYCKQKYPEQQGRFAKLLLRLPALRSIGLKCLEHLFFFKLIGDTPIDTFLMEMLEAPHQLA
Method: (§4) All binding assays were performed in a similar fashion. All six receptor types were derived from the expressed receptor type (RARα, β, Γ and RXRα, β, Γ) expressed in Baculovirus. Stock solutions of all compounds were prepared as 10 mM ethanol solutions and serial dilutions carried out into 1:1 DMSO; ethanol. Assay buffers consisted of the following for all six receptor assays: 8% glycerol, 120 mM KCl 8 mM Tris, 5 mM CHAPS 4 mM DTT and 0.24 mM PMSF, pH-7.4@ room temperature.
(§5) All receptor binding assays were performed in the same manner. The final assay volume was 250 μl and contained from 10-40 μg of extract protein depending on receptor being assayed along with 5 nM of [^3H] all-trans retinoic acid or 10 nM [^3H] 9-cis retinoic acid and varying concentrations of competing ligand at concentrations that ranged from 0-10^−5 M. The assays were formatted for a 96 well minitube system. Incubations were carried out at 4° C. until equilibrium was achieved. Non-specific binding was defined as that binding remaining in the presence of 1000 nM of the appropriate unlabeled retinoic acid isomer. At the end of the incubation period, 50 μl of 6.25% hydroxyapitite was added in the appropriate wash buffer. The wash buffer consisted of 100 mM KCl, 10 mM Tris and either 5 mM CHAPS (RXRα, β, Γ) or 0.5% Triton X-100 (RARα, β, Γ). The mixture was vortexed and incubated for 10 minutes at 4° C., centrifuged and the supernatant removed. The hydroxyapitite was washed three more times with the appropriate wash buffer. The receptor-ligand complex was adsorbed by the hydroxyapitite. The amount of receptor-ligand complex was determined by liquid scintillation counting of hydroxyapitite pellet.
(§6) After correcting for non-specific binding, IC50 values were determined. […] The IC50 value was determined graphically from a loglogit plot of the data. The […] were determined by application of the Cheng-Prussof equation to the IC50 values, the labeled ligand concentration and the Kd of the labeled ligand.
(§7) The results of ligand binding assay are expressed in Kd numbers. (See Cheng et al. Biochemical Pharmacology Vol. 22 pp 3099-3108, expressly incorporated herein by reference.)

[7] = target: T2, RXRΓ (Homo sapiens, UniProt P48443); assay: Ligand binding assay, RXRΓ
T2 construct: made in house; host or cells: Baculovirus expression (insect cell extract)
T2 sequence (P48443 1-463): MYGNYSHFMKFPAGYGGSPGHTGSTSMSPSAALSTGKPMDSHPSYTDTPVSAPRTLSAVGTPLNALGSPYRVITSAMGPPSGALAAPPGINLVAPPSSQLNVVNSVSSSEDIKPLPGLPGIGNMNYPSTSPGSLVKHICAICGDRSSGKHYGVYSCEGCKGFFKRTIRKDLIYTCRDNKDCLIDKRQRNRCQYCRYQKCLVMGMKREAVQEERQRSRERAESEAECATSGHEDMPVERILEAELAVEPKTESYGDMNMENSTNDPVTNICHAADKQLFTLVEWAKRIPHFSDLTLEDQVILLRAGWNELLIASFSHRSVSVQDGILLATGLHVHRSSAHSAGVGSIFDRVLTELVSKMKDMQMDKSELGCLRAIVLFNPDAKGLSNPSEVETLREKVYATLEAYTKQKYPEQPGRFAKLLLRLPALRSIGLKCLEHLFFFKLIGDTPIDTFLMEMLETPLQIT
Method: as §4, §5, §6, §7

With `CC1(C)CCC(C)(C)c2c(Br)cc(C(=O)Nc3ccc(C(=O)O)c(F)c3)cc21` [Compound 4, 2-Fluoro-4-[(4′-bromo-5′,6′,7′,8′-tetrahydro-5′,5′,8′,8′-tetramethylnaphthalen-2′-yl)carbamoyl]benzoic Acid] the “growth of RPMI 8226 malignant cells” value [1] was “inhibited the growth”, the “growth of RPMI 8226 cells at low concentration” value [1] was “do not stimulate but rather already in this low concentrations inhibit the growth” and the “AML-193 cell proliferation at low concentrations” value (“AML-193 cell proliferation” below) [2] was “reduce cell proliferation at low concentrations”.
For `CC1(C)CC(C)(C)c2cc(C(=O)Nc3ccc(C(=O)O)c(F)c3)cc(Br)c2O1` [Compound 10, 2-Fluoro-4-[(2′,2′,4′,4′-tetramethyl-8′-bromochroman-6′-yl)carbamoyl]benzoic Acid], the IC50 [3] was 250 ng/mL (≈ 555 nM).
In the case of `CC1(C)CC(C)(C)c2cc(C(=O)Nc3ccc(C(=O)O)c(F)c3)cc(C(F)(F)F)c2O1` [Compound 12], the “growth of RPMI 8226 malignant cells” value [1] is reported as “inhibited the growth”, the “growth of RPMI 8226 cells at low concentration” value [1] is reported as “do not stimulate but rather already in this low concentrations inhibit the growth” and the “AML-193 cell proliferation” value [2] is reported as “reduce cell proliferation at low concentrations”.
With `CC1(C)CC(C)(C)c2cc(C(=O)Nc3ccc(C(=O)O)c(F)c3)cc(I)c2O1` [Compound 18] the IC50 [3] was 220 ng/mL (≈ 442 nM), the “AML-193 cell proliferation” value [2] was “reduce cell proliferation at low concentrations” and the “Abrasion Score” value ([4]; dose 100 nanomol/25 g topical) was 1. For the same compound, the “Body Weight % gain or (loss)” value ([4]; dose 100 nanomol/25 g topical) was 8 ± 7%, the “Composite Score” value ([4]; dose 100 nanomol/25 g topical) was 1 ± 1 and the “Flaking Score” value ([4]; dose 100 nanomol/25 g topical) was 0. The “Mortality (out of 4)” value ([4]; dose 100 nanomol/25 g topical) was 0 out of 4, the “Abrasion Score” value ([4]; dose 1000 nanomol/25 g topical) was 1 and the “Body Weight % gain or (loss)” value ([4]; dose 1000 nanomol/25 g topical) was 4 ± 1%. The “Composite Score” value ([4]; dose 1000 nanomol/25 g topical) was 2 ± 0, the “Flaking Score” value ([4]; dose 1000 nanomol/25 g topical) was 1 and the “Mortality (out of 4)” value ([4]; dose 1000 nanomol/25 g topical) was 0 out of 4. The “weight loss compared to control” value ([5]; daily doses up to 90 μmol/kg/day in corn oil for 3 days, FIG. 6, FIG. 7) was “virtually no weight loss even in the high dose of 90 μmol/kg/day”.
In the case of `CC(C)(C)c1cc(C(=O)Nc2ccc(C(=O)O)cc2)cc(C(C)(C)C)n1` [Compound 44], the Kd [6] is reported as over 1 µM and the Kd [7] is reported as over 1 µM.
With `CC(C)(C)c1cc(C(=O)Nc2ccc(C(=O)O)c(F)c2)c(O)c(C(C)(C)C)c1` [Compound 48] the Kd [6] was over 1 µM and the Kd [7] was over 1 µM.
With `C/C(=C\c1ccc(C(=O)O)cc1)c1ccc2c(c1)C(C)(C)CCC2(C)C` [TTNPB] the IC50 [3] was 0.01 ng/mL (≈ 0.0287 nM), the “Abrasion Score” value ([4]; dose 0.9 nanomol/25 g topical) was 3 and the “Body Weight % gain or (loss)” value ([4]; dose 0.9 nanomol/25 g topical) was 5 ± 2%. For the same compound, the “Composite Score” value ([4]; dose 0.9 nanomol/25 g topical) was 8 ± 2, the “Flaking Score” value ([4]; dose 0.9 nanomol/25 g topical) was 5 and the “Mortality (out of 4)” value ([4]; dose 0.9 nanomol/25 g topical) was 0 out of 4. The “Abrasion Score” value ([4]; dose 2.7 nanomol/25 g topical) was 3, the “Body Weight % gain or (loss)” value ([4]; dose 2.7 nanomol/25 g topical) was “(4 ± 3) %” and the “Composite Score” value ([4]; dose 2.7 nanomol/25 g topical) was 9 ± 2. For the same compound, the “Flaking Score” value ([4]; dose 2.7 nanomol/25 g topical) was 6, the “Mortality (out of 4)” value ([4]; dose 2.7 nanomol/25 g topical) was 0 out of 4 and the “Abrasion Score” value ([4]; dose 9 nanomol/25 g topical) was 5. The “Body Weight % gain or (loss)” value ([4]; dose 9 nanomol/25 g topical) was “(11 ± 3) %”, the “Composite Score” value ([4]; dose 9 nanomol/25 g topical) was 11 ± 2 and the “Flaking Score” value ([4]; dose 9 nanomol/25 g topical) was 7. The “Mortality (out of 4)” value ([4]; dose 9 nanomol/25 g topical) was 0 out of 4, the “skin irritation (summary in words)” value ([4]; topical, hairless mice, RARα selective compound up to 1000 nmol/25 g) was “much more serious skin irritation” and the “weight loss in similar tests” value ([5]; similar tests) was “very significant weight loss”.
